PubChem BioAssay AID1963420 (Molecular Pharmacology Branch, DTP, NCI, 2024)

Tested on: 494315-158-R-J1-PDC complex spheroid growth, percent test/control
Assay: Anticancer human tumor 494315-158-R-J1-PDC patient-derived soft tissue sarcoma cell line growth inhibition [Asc]
Settings: for IC50: curve of first compound; for viability, T/C: stronger effect = lower value
Outline: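 Tumor cells were grown as multicellular spheroids with stromal HUVEC and mesenchymal stem cells and treated singly or in combination. Concentrations fell in half-log steps from the clinical Cmax, or from 10 microM where none was known.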

[1] = second compound 0.1 µM, first compound 0.00316 µM
[2] = second compound 0.1 µM, first compound 0.01 µM
[3] = second compound 0.1 µM, first compound 0.0316 µM
[4] = second compound 0.1 µM, first compound 0.1 µM
[5] = second compound 0.1 µM, first compound 0.316 µM
[6] = second compound 0.1 µM, first compound 1 µM
[7] = second compound 0.316 µM, first compound 0.00316 µM
[8] = second compound 0.316 µM, first compound 0.01 µM
[9] = second compound 0.316 µM, first compound 0.0316 µM
[10] = second compound 0.316 µM, first compound 0.1 µM
[11] = second compound 0.316 µM, first compound 0.316 µM
[12] = second compound 0.316 µM, first compound 1 µM
[13] = second compound 1 µM, first compound 0.00316 µM
[14] = second compound 1 µM, first compound 0.01 µM
[15] = second compound 1 µM, first compound 0.0316 µM
[16] = second compound 1 µM, first compound 0.1 µM
[17] = second compound 1 µM, first compound 0.316 µM
[18] = second compound 1 µM, first compound 1 µM
[19] = second compound 3.16 µM, first compound 0.00316 µM
[20] = second compound 3.16 µM, first compound 0.01 µM
[21] = second compound 3.16 µM, first compound 0.0316 µM
[22] = second compound 3.16 µM, first compound 0.1 µM
[23] = second compound 3.16 µM, first compound 0.316 µM
[24] = second compound 3.16 µM, first compound 1 µM
[25] = second compound 10 µM, first compound 0.00316 µM
[26] = second compound 10 µM, first compound 0.01 µM
[27] = second compound 10 µM, first compound 0.0316 µM
[28] = second compound 10 µM, first compound 0.1 µM
[29] = second compound 10 µM, first compound 0.316 µM
[30] = second compound 10 µM, first compound 1 µM
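Also: compound exposure lasted seven days after spheroids formed for three days.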

Structure (SMILES) | IC50 (second compound 0.1 µM) | IC50 (second compound 0.316 µM) | IC50 (second compound 1 µM) | IC50 (second compound 3.16 µM) | IC50 (second compound 10 µM) | viability, T/C [1] | viability, T/C [2] | viability, T/C [3] | viability, T/C [4] | viability, T/C [5] | viability, T/C [6] | viability, T/C [7] | viability, T/C [9] | viability, T/C [10] | viability, T/C [15] | viability, T/C [16] | viability, T/C [21] | viability, T/C [22] | viability, T/C [27] | viability, T/C [28] | other results
CCN1CCN(Cc2ccc(Nc3ncc(F)c(-c4cc(F)c5nc(C)n(C(C)C)c5c4)n3)nc2)CC1 + Cc1c(S(C)(=O)=O)c(-c2cc(F)cc(N3CCN(c4ccc(NS(=O)(=O)c5ccc(NC(CCN6CCC(C(=O)OCCCP(=O)(O)O)CC6)CSc6ccccc6)c(S(=O)(=O)C(F)(F)F)c5)cc4)CC3)c2)c(-c2ccc(Cl)cc2)n1C(C)C | > 1000 nM | 829 nM | > 1000 nM | 272 nM | 725 nM | 75.6% | 83% | 78.3% | 77.1% | 77.8% | 53.6% | 72.2% | 78% | 67.1% | 68% | 65.7% | 54.3% | 61.4% | 73.2% | 76.7% | viability, T/C [8]: 79.8%; viability, T/C [11]: 70.9%; viability, T/C [12]: 46.1%; viability, T/C [13]: 61.9%; viability, T/C [14]: 65.7%; viability, T/C [17]: 61.6%; viability, T/C [18]: 41.1%; viability, T/C [19]: 56.1%; viability, T/C [20]: 52%; viability, T/C [23]: 46.2%; viability, T/C [24]: 31.3%; viability, T/C [25]: 79%; viability, T/C [26]: 81%; viability, T/C [29]: 73.3%; viability, T/C [30]: 41%
Cn1ncnc1[C@H]1c2n[nH]c(=O)c3cc(F)cc(c23)N[C@@H]1c1ccc(F)cc1 + Cc1c(S(C)(=O)=O)c(-c2cc(F)cc(N3CCN(c4ccc(NS(=O)(=O)c5ccc(NC(CCN6CCC(C(=O)OCCCP(=O)(O)O)CC6)CSc6ccccc6)c(S(=O)(=O)C(F)(F)F)c5)cc4)CC3)c2)c(-c2ccc(Cl)cc2)n1C(C)C | 26.8 nM | 18.1 nM | 4.34 nM | 1.3 nM | 4.61 nM | 62.2% | 56.5% | 48.7% | 46.1% |  |  | 63.9% | 50.9% | 48.9% | 38.9% | 35% | 32.9% | 25.4% | 38.4% | 45.7% | viability, T/C (second compound 0.1 µM, first compound 0.000316 µM): 83.2%; viability, T/C (second compound 0.1 µM, first compound 0.001 µM): 76%; viability, T/C (second compound 0.316 µM, first compound 0.000316 µM): 74.6%; viability, T/C (second compound 0.316 µM, first compound 0.001 µM): 63.1%; viability, T/C [8]: 44.6%; viability, T/C (second compound 1 µM, first compound 0.000316 µM): 56.4%; viability, T/C (second compound 1 µM, first compound 0.001 µM): 59%; viability, T/C [13]: 52%; viability, T/C [14]: 43%; viability, T/C (second compound 3.16 µM, first compound 0.000316 µM): 56.1%; viability, T/C (second compound 3.16 µM, first compound 0.001 µM): 53.5%; viability, T/C [19]: 40.3%; viability, T/C [20]: 31.6%; viability, T/C (second compound 10 µM, first compound 0.000316 µM): 66.1%; viability, T/C (second compound 10 µM, first compound 0.001 µM): 71.2%; viability, T/C [25]: 53.3%; viability, T/C [26]: 45.2%
O=C(c1cc(Cc2n[nH]c(=O)c3ccccc23)ccc1F)N1CCN(C(=O)C2CC2)CC1 + Cc1c(S(C)(=O)=O)c(-c2cc(F)cc(N3CCN(c4ccc(NS(=O)(=O)c5ccc(NC(CCN6CCC(C(=O)OCCCP(=O)(O)O)CC6)CSc6ccccc6)c(S(=O)(=O)C(F)(F)F)c5)cc4)CC3)c2)c(-c2ccc(Cl)cc2)n1C(C)C | 3040 nM | 1620 nM | 1640 nM | 1080 nM | 2260 nM |  |  | 86% | 76.2% | 69.2% | 63.5% |  | 71.7% | 66.4% | 62.7% | 70.9% | 48.1% | 51.8% | 69.5% | 77.1% | viability, T/C (second compound 0.1 µM, first compound 3.16 µM): 49.5%; viability, T/C (second compound 0.1 µM, first compound 10 µM): 36.3%; viability, T/C [11]: 59.7%; viability, T/C [12]: 57.6%; viability, T/C (second compound 0.316 µM, first compound 3.16 µM): 42.5%; viability, T/C (second compound 0.316 µM, first compound 10 µM): 33%; viability, T/C [17]: 62%; viability, T/C [18]: 57.8%; viability, T/C (second compound 1 µM, first compound 3.16 µM): 40.1%; viability, T/C (second compound 1 µM, first compound 10 µM): 23.4%; viability, T/C [23]: 53.5%; viability, T/C [24]: 51%; viability, T/C (second compound 3.16 µM, first compound 3.16 µM): 37%; viability, T/C (second compound 3.16 µM, first compound 10 µM): 22.2%; viability, T/C [29]: 73.4%; viability, T/C [30]: 58.5%; viability, T/C (second compound 10 µM, first compound 3.16 µM): 46.8%; viability, T/C (second compound 10 µM, first compound 10 µM): 29.3%
O=C(c1ccc(F)c(F)c1Nc1ccc(I)cc1F)N1CC(O)([C@@H]2CCCCN2)C1 + Cc1c(S(C)(=O)=O)c(-c2cc(F)cc(N3CCN(c4ccc(NS(=O)(=O)c5ccc(NC(CCN6CCC(C(=O)OCCCP(=O)(O)O)CC6)CSc6ccccc6)c(S(=O)(=O)C(F)(F)F)c5)cc4)CC3)c2)c(-c2ccc(Cl)cc2)n1C(C)C | 543 nM | 375 nM | 258 nM | 142 nM | 245 nM | 78.8% | 78.8% | 87.4% | 85.3% | 72.1% | 24.9% | 71.2% | 70.6% | 72% | 71.6% | 72.5% | 59.5% | 53.6% | 76.4% | 79.9% | viability, T/C [8]: 78.9%; viability, T/C [11]: 55.8%; viability, T/C [12]: 15.5%; viability, T/C [13]: 60.4%; viability, T/C [14]: 61.2%; viability, T/C [17]: 46.5%; viability, T/C [18]: 12.2%; viability, T/C [19]: 60.5%; viability, T/C [20]: 53.6%; viability, T/C [23]: 40.7%; viability, T/C [24]: 18.3%; viability, T/C [25]: 68.2%; viability, T/C [26]: 75.2%; viability, T/C [29]: 43%; viability, T/C [30]: 13.7%
